Data as given in US20090181409A1, “Optical biosensor method for cell-cell interaction” (priority 2008, published 2009).

How the values were obtained:
D1 cells = assay: NK92 cell-induced optical signal of D1 cells (Epic RWG biosensor), modulation by pharmacological agents; type: cell-based, mouse; settings: D1 cells pretreated with agent for 1 hour before NK cells; killer:target ratio 1; 28° C.
Method: The impact of six pharmacological agents was examined on the NK92 cell-induced optical signal of D1 cells. […] Brefeldin A (BFA), and Camptothecin are defined above. Kp7-6 is an exocyclic cystine-knot peptide that specifically antagonizes Fas/FasL-mediated cellular apoptotic signals, for example, it can reduce 58% of FasL-induced apoptosis in Jurkat cells at 1 mg/mL. Latrunculin inhibits actin polymerization in vitro and disrupts microfilament organization as well as microfilament-mediated processes. […] Wortmannin is a potent, selective, cell-permeable and irreversible inhibitor of phosphatidylinositol 3-kinase.
Cell culture—Natural killer cells-NK92MI and the multipotent mouse bone marrow D1 cell line were from American Type Culture Collection (Manassas, Va.). NK92MI cells were grown in RPMI medium plus 12.5% horse serum and 12.5 fetal bovine serum (FBS) and antibiotics. D1 cells were grown in Dulbecco's Modified Eagle's Medium supplemented with 10% fetal bovine serum (FBS) and antibiotics. Approximately 1×10^4 to 2×10^4 target cells of D1 in 50 μL medium were placed in each well of Epic® 384-well microplate. After cell seeding, the cells were cultured at 37° C. under air/5% CO2 until a high degree, e.g., 90% of confluence was reached (about 24 hrs). Cells were continuously cultured overnight in their corresponding media without any serum to keep cells at a quiescent state and cell confluence was over about 95%.
Epic® system and DMR assays—Epic® beta system was used during this study. For cell-cell interaction study, target cell density was at about 95-100% confluence and the cells were finally maintained with the appropriate medium as described above. Cell number of NK92MI was counted with Beckman Coulter Particle Counter. Unless stated otherwise, a ratio of 1 between killer cells and target cells was used. NK92MI cells were suspended in RPMI plus 2% FBS. A 20 μL aliquot of NK92MI solution was added to each well of a normal 384-well microplate (Corning Inc., Corning, N.Y.). The plates of the target cells and the natural killer cells were incubated in the Epic® instrument for at least 30 minutes to reach 28° C. For pharmacological agent studies, the D1 cells were pretreated with the agents for 1 hour before NK cells were introduced. All studies were carried out at 28° C. for consistency and having the lid of the microplate continuously on except for a short period of time (e.g., about seconds) when the solution was introduced to minimize the effect of temperature fluctuation and evaporative cooling.

RhoA = RhoA (Homo sapiens, UniProt P61586); settings: cited from earlier work
Chain of RhoA (P61586 whole entry, species assumed): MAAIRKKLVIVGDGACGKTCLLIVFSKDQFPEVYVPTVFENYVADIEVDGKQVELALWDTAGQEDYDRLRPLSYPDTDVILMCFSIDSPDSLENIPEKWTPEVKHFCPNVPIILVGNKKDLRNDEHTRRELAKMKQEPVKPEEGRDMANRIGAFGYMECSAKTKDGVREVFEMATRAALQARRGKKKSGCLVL

CHO-ICAM1 cells = assay: NK92 cell-induced N-DMR signal of CHO-ICAM1 cells (Epic RWG biosensor), modulation by pharmacological agents; type: cell-based, Chinese hamster; settings: CHO-ICAM1 cells pretreated with agent for 1 hour before NK cells; killer:target ratio 1; 28° C.
Excerpt: The impacts of four pharmacological agents were examined on the NK92 cell-induced DMR signal of CHO-ICAM1 cells. FIG. 4 illustrate the modulation profile (response v. modulator concentration in microM) of the natural killer cell-induced DMR signal of the target cell layer by four different modulators at different doses:
Cell culture—Natural killer cells-NK92MI, both parental CHO-K1 and engineered CHO expressing ICAM1 receptor (CHO-ICAM1) were purchased from American Type Culture Collection (Manassas, Va.). NK92MI cells were grown in RPMI medium plus 12.5% horse serum and 12.5 fetal bovine serum (FBS) and antibiotics. CHO-K1 cells and CHO-ICAM1 cells were grown in RPMI supplemented with 10% fetal bovine serum (FBS) and antibiotics. Approximately 1-2×10^4 target cells of CHO-K1 or CHO-ICAM1 in 50 μl medium were placed in each well of Epic® 384-well microplate. After cell seeding, the cells were cultured at 37° C. under air/5% CO2 until a high degree, e.g. 90%, of confluence was reached (e.g., about 24 hrs). Cells were continuously cultured for over night with their corresponding media without any serum to keep cells at a quiescent state and cell confluence was over 95%.
Epic® system and DMR assays—An Epic® beta system was used during this study. For cell-cell interaction study, target cell density was at 95-100% confluence and the cells were finally maintained with the appropriate medium as described above. Cell number of NK92MI was counted with Beckman Coulter Particle Counter (Beckman Coulter, Fullerton, Calif.). Unless stated otherwise, a ratio of 1 between killer cells and target cells was used. NK92MI cells were suspended in RPMI plus 2% FBS. A 20-microliter solution of NK92MI was aliquoted to each well of a normal 384-well microplate (Corning Inc., Corning, N.Y.). The plates of the target-cell and the natural killer cell were incubated in the Epic® instrument for at least 30 minutes to reach 28° C. For pharmacological agent studies, the Icam1 cells had been pretreated with the agents for 1 hour before the NK cells were introduced. All studies were carried out at 28° C. with the lid of the microplate on except for a short period of time (e.g., about several seconds) when the solution was introduced, in order to minimize the effect of temperature fluctuation and evaporative cooling.

SMILES	effect on NK92-induced signals of D1 cells (D1 cells)	effect on RhoA activation (RhoA)	effect on NK92-induced N-DMR of CHO-ICAM1 cells (CHO-ICAM1 cells)
CCN(CC)CCCC(C)Nc1nc(C)cc(Nc2ccc3nc(C)cc(N)c3c2)n1 (racemic) [Rac1 inhibitor]	dose dependently increases	no effect	
C[C@H]1CCC/C=C/[C@@H]2C[C@H](O)C[C@H]2[C@H](O)/C=C/C(=O)O1 [BFA, Brefeldin A]	dose dependently increases		dose dependently increases
CC[C@@]1(O)C(=O)OCc2c1cc1n(c2=O)Cc2cc3ccccc3nc2-1 [camptothecin, Camptothecin]	dose dependently increases		dose dependently increases
COC(=O)CC[C@H](NC(=O)[C@H](CC(=O)OC)NC(=O)OCc1ccccc1)C(=O)N[C@H](C(=O)N[C@@H](CC(=O)OC)C(=O)CF)C(C)C [caspase 3 inhibitor]			little effect
CC[C@]1(O)C[C@@H]2CN(CCc3c([nH]c4ccccc34)[C@@](C(=O)OC)(c3cc4c(cc3OC)N(C)[C@H]3[C@@](O)(C(=O)OC)[C@H](OC(C)=O)[C@]5(CC)C=CCN6CC[C@]43[C@@H]65)C2)C1 [vinblastine, Vinblastine]			dose dependently increases
N#CC(=C(/N)Sc1ccccc1N)/C(C#N)=C(\N)Sc1ccccc1N [U0126]			dose-dependently suppressed
C/C1=C/C(=O)O[C@@H]2C[C@@H](CC[C@H](C)/C=C\C=C\CC1)O[C@@](O)([C@@H]1CSC(=O)N1)C2 [latrunculin A]	dose dependently increases		
